The values below come from publication PMC4742142, “Identification of novel, in vivo active Chk1 inhibitors utilizing structure guided drug design” (Oncotarget, 2015).

Like-named read-outs stand apart in the source and are kept apart here.

Data set [1] has as its target T1, Chk1 (Homo sapiens, UniProt O14757).
T1 sequence (O14757 1-476): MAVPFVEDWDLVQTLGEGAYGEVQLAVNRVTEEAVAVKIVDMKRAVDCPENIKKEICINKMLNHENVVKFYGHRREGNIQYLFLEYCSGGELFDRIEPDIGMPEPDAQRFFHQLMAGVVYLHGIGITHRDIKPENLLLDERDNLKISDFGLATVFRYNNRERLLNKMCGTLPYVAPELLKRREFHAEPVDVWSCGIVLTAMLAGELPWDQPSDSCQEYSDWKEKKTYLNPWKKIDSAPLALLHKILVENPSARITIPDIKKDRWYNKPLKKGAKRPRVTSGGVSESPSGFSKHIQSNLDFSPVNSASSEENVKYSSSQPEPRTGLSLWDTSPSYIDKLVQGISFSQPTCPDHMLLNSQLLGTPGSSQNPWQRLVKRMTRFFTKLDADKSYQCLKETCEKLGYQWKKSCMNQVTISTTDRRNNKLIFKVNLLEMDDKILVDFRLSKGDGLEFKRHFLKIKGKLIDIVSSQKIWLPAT
Description: In vitro kinase assay, Chk1. The data set is classed as biochemical. The method, then:
Kinase assays were performed as previously described.

For data set [2], the target named is T1, Chk1. Description: Etoposide induced Chk1 autophosphorylation (pS296) in HT29 cells, immunoblotting. The data set is classed as cell-based. As for the experimental part: (§1) Figure 3 Effect of V158411 on etoposide, gemcitabine and camptothecin induced DNA damage checkpoint and cell cycle proteins A. HT29 cells were exposed to increasing concentrations of V158411 for 1 hour followed by 25 μM etoposide for a further 5 hours. Auto-phosphorylation of Chk1 and Chk2 was determined by immunoblotting. B. HT29 cells were treated with gemcitabine (25 nM) or camptothecin (50 nM) for 16 hours followed by increasing doses of V158411 for a further 24 hours. C. HT29 cells were treated with 500 nM V158411 for 1 hour, media removed and replaced with drug free. Cells were harvested at the indicated time points post the removal of V158411. D. HT29 cells were treated with 0 or 100 nM camptothecin for 16 hours followed by V158411 for 2 - 24 hours. After the indicated time, media was removed and replaced with drug free media. All cells were harvested 24 hours after the initial addition of V158411. Protein expression was characterized by immunoblotting as described in materials and methods.
Anti-pHistone H3 (S10) was obtained from Millipore; pCdc2 (Y15), pCdc25C (S216), Chk1, pChk1 (S317), pChk2 (S516), Cyclin B1, pH2AX (S139), GAPDH and Actin from Cell Signaling Technologies and pChk1 (S296) from Abcam. Treated and untreated cells were washed once with PBS and lysed in RIPA buffer containing protease and phosphatase inhibitor cocktail (Roche). Protein concentration was determined using BCA kit (Pierce). Equal amounts of lysate were separated by SDS-PAGE and western blot analysis conducted using the antibodies indicated above.
(In general: In western blotting, separated proteins are transferred to a membrane and probed.)

In a further data set the test system is A549. Kind of data set: Single agent cytotoxicity assay (SRB, 72 hours). The data set is classed as cell-based. The settings on record: Homo sapiens, A549, lung. As for the experimental part: (§2) All cells were obtained from the American Type Culture Collection and maintained as low passage stocks. Cells were routinely cultured in DMEM or RPMI1640 containing 10% FCS and 1% penicillin / streptomycin (Invitrogen). The cytotoxicity of V158411 was determined following exposure of cells in 96 well plates using a 10-point titration for 72 hours. Cell proliferation was determined using sulphorhodamine B staining following protein precipitation with 10% TCA.

The subject of another data set is Colo205. Kind of data set: Single agent cytotoxicity assay (SRB, 72 hours). The data set is classed as cell-based. To be noted: Homo sapiens, COLO 205, Colo205, colon. The method, then: as §2
The subject of a further data set is HCT116. Kind of data set: Single agent cytotoxicity assay (SRB, 72 hours). The data set is classed as cell-based. To be noted: Homo sapiens, HCT-116, HCT116, colon. As for the experimental part:
as §2

The test system of a further data set is HT29. Description: Single agent cytotoxicity assay (SRB, 72 hours). The data set is classed as cell-based. The settings on record: Homo sapiens, HT-29, HT29, colon. As for the experimental part:
as §2

A further data set deals with NCI-H460. Description: Single agent cytotoxicity assay (SRB, 72 hours). To be noted: Homo sapiens, NCI-H460, lung. The data set is classed as cell-based. The method, then: as §2
The next data set deals with NCI-H520. Kind of data set: Single agent cytotoxicity assay (SRB, 72 hours). The data set is classed as cell-based. The settings on record: Homo sapiens, NCI-H520, lung. As for the experimental part:
as §2

For the next data set, the system named is PC3. Kind of data set: Single agent cytotoxicity assay (SRB, 72 hours). The data set is classed as cell-based. The settings on record: Homo sapiens, PC-3, PC3, prostate. The method, then:
as §2

A further data set concerns SW620. Description: Single agent cytotoxicity assay (SRB, 72 hours). The data set is classed as cell-based. The settings on record: Homo sapiens, SW-620, SW620, colon. The method, then: as §2
The subject of another data set is HT29 cells. Kind of data set: Clonogenicity (colony formation) assay. The data set is classed as cell-based, human. The settings on record: HT29, 300 nM V158411 with gemcitabine, camptothecin or SN38. As for the experimental part:
HT29 cells were plated at a density of 300 cells per well in 6-well plates and allowed to attach for 4 hours. Cells were treated with gemcitabine, camptothecin or SN38 in the absence or presence of V158411 for 24 hours followed by drug free media for a further 14 days. Resulting colonies were stained and fixed with 0.1% crystal violet in 10% formaldehyde.

Data set [3] is described as follows: Plasma and tumor pharmacokinetics in HT29 tumor bearing mice. The data set is classed as in vivo. The settings on record: mouse, HT29 tumor bearing mice, 30 mg/kg IV. As for the experimental part:
Dosing of animals and collection of samples was conducted by Quotient Bioresearch (Rushden) Ltd, UK. V158411 was administered by intravenous (IV) bolus injection to female Balb/C mice, male Sprague-Dawley rats or male beagle dogs. Plasma samples were prepared by protein precipitation with acetonitrile containing internal standard (IS; dextromethorphan, 0.5 μg/mL); the analysis plate was centrifuged at 3,000 rpm for 10 minutes at 4°C. […] The ratios of analyte against IS peak areas were calculated, and concentrations derived from calibration lines generated by Quanlynx (Waters Ltd.).
Pharmacokinetic parameters were calculated using the software package WinNonLin (Pharsight Corp.). Data was analyzed using noncompartmental analysis and fitted using plasma concentration versus time curves.

The target in data set [4] is T1, Chk1. Kind of data set: Wide panel binding assay (386 kinases). To be noted: Chk1, 50 nM. As for the experimental part:
(§3) Selectivity against the cell cycle kinase CDK1 is considered critical for the pharmacological activity of Chk1 inhibitors as inhibiting it would prevent the G2 checkpoint abrogation and entry into mitosis; critical for the potentiation of cytotoxic DNA damage. Against a panel of 386 kinases in a wide panel binding assay, V158411 inhibited the activity of one kinase (Chk1) in the range 99-100%, three kinases 90-99% and 19 kinases 65-90% at 50 nM (Supplementary Table 1).

For another data set, the system named is panel of 386 kinases. Description: Wide panel binding assay, whole panel. To be noted: at pharmacologically relevant doses. As for the experimental part:
as §3

The next data set deals with Chk2 (Homo sapiens, UniProt O96017). Description: Etoposide induced Chk2 autophosphorylation (pS516) in HT29 cells, immunoblotting. The data set is classed as cell-based. Set-up: endogenous in cells; host or cells: HT29. To be noted: 1 hour compound then 25 μM etoposide 5 hours. As for the experimental part:
as §1
Anti-pHistone H3 (S10) was obtained from Millipore; pCdc2 (Y15), pCdc25C (S216), Chk1, pChk1 (S317), pChk2 (S516), Cyclin B1, pH2AX (S139), GAPDH and Actin from Cell Signaling Technologies and pChk1 (S296) from Abcam. […] Protein concentration was determined using BCA kit (Pierce). […]

Sequence of Chk2 (O96017 whole entry): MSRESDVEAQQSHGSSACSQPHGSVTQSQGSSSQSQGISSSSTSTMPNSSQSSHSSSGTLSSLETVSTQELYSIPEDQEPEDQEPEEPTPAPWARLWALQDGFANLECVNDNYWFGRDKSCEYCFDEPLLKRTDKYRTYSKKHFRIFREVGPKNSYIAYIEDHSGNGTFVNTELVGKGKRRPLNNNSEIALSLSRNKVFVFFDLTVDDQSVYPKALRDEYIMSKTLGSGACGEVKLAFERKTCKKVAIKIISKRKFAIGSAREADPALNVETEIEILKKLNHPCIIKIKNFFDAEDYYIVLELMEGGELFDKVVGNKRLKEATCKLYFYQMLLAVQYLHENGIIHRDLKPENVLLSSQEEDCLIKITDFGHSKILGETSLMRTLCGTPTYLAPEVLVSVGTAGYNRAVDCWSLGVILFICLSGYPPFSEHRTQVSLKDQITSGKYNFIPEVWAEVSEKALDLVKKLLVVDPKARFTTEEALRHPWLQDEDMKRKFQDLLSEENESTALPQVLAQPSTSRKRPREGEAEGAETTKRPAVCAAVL

As usually defined, the IC50 is the concentration needed to halve the response being measured. As usually defined, the GI50 is the concentration that inhibits growth by half. The low end stands for more potent growth inhibition, the high end for less potent growth inhibition. In general, clearance refers to the rate of elimination divided by the concentration. Read a high clearance as efficient removal. Usually half-life stands for how long it takes for the measured level to halve. Broadly, the inhibition is the drop in the measured response relative to a control, in per cent. Take `CN(C)CC(C)(C)COc1ccc2[nH]c(-c3cc(NC(=O)c4cnn(Cc5ccccc5)c4)c[nH]c3=O)cc2c1` [V158411]: the figures for the IC50 against Chk1 [1], against Chk1 [2] (1 hour compound then 25 μM etoposide 5 hours) and against Chk2 were 4.4 nM, 48 nM and 904 nM, respectively. For the same compound, at Chk1 [2], the “IC50 for Chk1 autophosphorylation and EC50 for H2AX phosphorylation lower than single agent GI50” value is reported as “around 10 fold”. The “cellular selectivity for Chk1 versus Chk2” value at Chk1 [2] (etoposide) amounted to 19 fold. Besides, the GI50 in the data set on A549 stood at 1400 ± 350 nM; with Colo205, 1600 ± 420 nM; in the data set on HCT116, 4 ± 0.78 µM; in the data set with HT29, 650 ± 250 nM; in the data set on NCI-H460, 2700 ± 930 nM; with NCI-H520 it was 550 ± 140 nM. In addition, the GI50 was found to be 9.5 ± 1 µM in the data set with PC3 and 500 ± 33 nM in the data set on SW620. Besides, the “effect on fraction of cells killed in colony formation” value with HT29 cells is given as “significantly increased the fraction of cells killed by all three agents”. The same compound returned a clearance in [3] (plasma) of 24 mL/min/kg. Also, the half-life in data set [3] (plasma, read-out: half-life (plasma) (converted)) was 246 min; in data set [3] (read-out: elimination half-life in the tumor (converted)) it was 1320 min. Besides, in data set [3] (plasma, read-out: volume of distribution), the Vd came to 2.5 L/kg. In addition, the Kp in [3] (tumor versus plasma, read-out: tissue/plasma AUC0-24h ratio) is 4.7. For the same compound, the “Percent inhibition at 50 nM” value on Chk1 [4] (0.05 µM) was 99-100%. Moreover, the inhibition at 0.05 µM on Chk1 [4] (read-out: Percent inhibition at 50 nM) came to 100%. The “selectivity for Chk1 over the majority of the kinases in the panel” value in the data set with panel of 386 kinases is reported as over 100 fold.
